Source: paper PMC9516332 (Frontiers in Oncology, 2022)
Read-outs that look alike come from different tables or passages of the source.

What was measured:
Experiment in all cases: Kinase panel profiling at 1 µmol/L (MSA or IMAP), percentage inhibition
Format in all cases: biochemical
[1] = biological target: panel of 255 wild-type kinases (Homo sapiens, UniProt P06493); details: CDC2/CycB1 kinase assay; 1 µmol/L single concentration; read-out: %-inhibition CDC2/CycB1
[2] = biological target: panel of 255 wild-type kinases (Homo sapiens, UniProt Q07912); details: ACK kinase assay; 1 µmol/L single concentration; read-out: %-inhibition ACK
[3] = biological target: panel of 255 wild-type kinases (Homo sapiens, UniProt P22612); details: kinase PKACγ; 1 µmol/L single concentration; read-out: %-inhibition at 1 µmol/L, PKACγ
[4] = biological target: panel of 255 wild-type kinases (Homo sapiens, UniProt P49840); details: kinase GSK3α; 1 µmol/L single concentration; read-out: %-inhibition at 1 µmol/L, GSK3α
[5] = biological target: panel of 255 wild-type kinases (Homo sapiens, UniProt Q04912); details: kinase RON; 1 µmol/L single concentration; read-out: %-inhibition at 1 µmol/L, RON
[6] = biological target: panel of 255 wild-type kinases (Homo sapiens, UniProt Q05397); details: read-out: %-inhibition at 1 µmol/L, FAK
[7] = biological target: panel of 255 wild-type kinases (Homo sapiens, UniProt P11309); details: kinase PIM1; 1 µmol/L single concentration; read-out: %-inhibition at 1 µmol/L, PIM1
[8] = biological target: panel of 255 wild-type kinases (Homo sapiens, UniProt Q9Y3S1); details: kinase WNK2; 1 µmol/L single concentration; read-out: %-inhibition at 1 µmol/L, WNK2
[9] = biological target: panel of 255 wild-type kinases (Homo sapiens, UniProt Q9NYY3); details: kinase PLK2; 1 µmol/L single concentration; read-out: %-inhibition at 1 µmol/L, PLK2
[10] = biological target: T1, panel of 255 wild-type kinases (Homo sapiens, UniProt Q96BR1); details: kinase SGK3; 1 µmol/L single concentration; read-out: %-inhibition at 1 µmol/L, SGK3
T1 sequence (Q96BR1 1-496): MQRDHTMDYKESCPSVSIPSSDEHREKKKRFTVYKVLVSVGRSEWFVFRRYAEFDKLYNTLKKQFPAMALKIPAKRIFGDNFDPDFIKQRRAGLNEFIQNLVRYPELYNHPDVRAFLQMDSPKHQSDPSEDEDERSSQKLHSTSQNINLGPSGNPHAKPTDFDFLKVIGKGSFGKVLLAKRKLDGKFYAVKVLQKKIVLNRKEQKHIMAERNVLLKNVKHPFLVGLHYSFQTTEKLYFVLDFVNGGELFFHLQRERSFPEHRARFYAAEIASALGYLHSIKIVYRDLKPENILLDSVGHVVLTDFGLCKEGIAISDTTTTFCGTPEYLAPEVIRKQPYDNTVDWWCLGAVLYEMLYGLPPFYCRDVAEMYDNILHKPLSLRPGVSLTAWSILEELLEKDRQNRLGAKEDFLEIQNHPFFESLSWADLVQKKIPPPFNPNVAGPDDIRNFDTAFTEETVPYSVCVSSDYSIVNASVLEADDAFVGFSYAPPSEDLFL

[11] = biological target: panel of 255 wild-type kinases (Homo sapiens, UniProt P22607); details: read-out: %-inhibition at 1 µmol/L, FGFR3
[12] = biological target: panel of 255 wild-type kinases (Homo sapiens, UniProt Q16539); details: p38α; 1 µmol/L single concentration; read-out: %-inhibition, p38α
[13] = biological target: panel of 255 wild-type kinases (Homo sapiens, UniProt Q8N568); details: kinase DCAMKL2; 1 µmol/L single concentration; read-out: %-inhibition at 1 µmol/L, DCAMKL2
[14] = biological target: panel of 255 wild-type kinases (Homo sapiens, UniProt P49761); details: kinase CLK3; 1 µmol/L single concentration; read-out: %-inhibition at 1 µmol/L, CLK3
[15] = biological target: T2, panel of 255 wild-type kinases (Homo sapiens, UniProt O43781); details: kinase DYRK3; 1 µmol/L single concentration; read-out: %-inhibition at 1 µmol/L, DYRK3
T2 sequence (O43781 1-588): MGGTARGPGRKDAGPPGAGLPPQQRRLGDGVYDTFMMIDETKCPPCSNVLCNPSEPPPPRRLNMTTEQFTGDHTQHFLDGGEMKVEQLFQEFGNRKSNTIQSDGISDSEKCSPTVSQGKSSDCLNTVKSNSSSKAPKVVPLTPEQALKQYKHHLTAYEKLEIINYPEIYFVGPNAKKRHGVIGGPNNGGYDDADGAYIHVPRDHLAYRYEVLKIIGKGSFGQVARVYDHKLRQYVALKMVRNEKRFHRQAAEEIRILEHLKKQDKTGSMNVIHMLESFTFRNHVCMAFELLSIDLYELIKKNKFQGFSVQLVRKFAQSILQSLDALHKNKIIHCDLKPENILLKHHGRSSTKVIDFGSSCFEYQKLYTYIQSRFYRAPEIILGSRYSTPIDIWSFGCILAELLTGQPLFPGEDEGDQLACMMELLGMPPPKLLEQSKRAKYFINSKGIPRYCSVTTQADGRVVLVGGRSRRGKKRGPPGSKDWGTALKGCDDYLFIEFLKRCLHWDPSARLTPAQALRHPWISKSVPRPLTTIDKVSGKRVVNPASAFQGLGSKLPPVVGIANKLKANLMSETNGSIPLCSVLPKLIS

[16] = biological target: panel of 255 wild-type kinases (Homo sapiens, UniProt P54756); details: kinase EPHA5; 1 µmol/L single concentration; read-out: %-inhibition at 1 µmol/L, EPHA5
[17] = biological target: panel of 255 wild-type kinases (Homo sapiens, UniProt P51812); details: kinase RSK2; 1 µmol/L single concentration; read-out: %-inhibition at 1 µmol/L, RSK2
[18] = biological target: panel of 255 wild-type kinases (Homo sapiens, UniProt P06241); details: kinase FYN [isoform a]; 1 µmol/L single concentration; read-out: %-inhibition at 1 µmol/L, FYN [isoform a]
[19] = kinase FAK, 1 µmol/L single concentration
[20] = kinase FGFR3, 1 µmol/L single concentration

inhibition at 1 µM [11] [%] | SMILES | inhibition at 1 µM [1] [%] | inhibition at 1 µM [2] [%] | inhibition at 1 µM [3] [%] | inhibition at 1 µM [4] [%] | inhibition at 1 µM [5] [%] | inhibition at 1 µM [6, 19] [%] | inhibition at 1 µM [7] [%] | inhibition at 1 µM [8] [%] | inhibition at 1 µM [9] [%] | inhibition at 1 µM [10] [%] | inhibition at 1 µM [11, 20] [%] | inhibition at 1 µM [12] [%] | inhibition at 1 µM [13] [%] | inhibition at 1 µM [14] [%] | inhibition at 1 µM [15] [%] | inhibition at 1 µM [16] [%] | inhibition at 1 µM [17] [%] | inhibition at 1 µM [18] [%] | inhibition at 1 µM [6] [%]
– | C[C@H](Nc1ncnc2nc[nH]c12)c1cc2cccc(Cl)c2c(=O)n1-c1ccccc1 [duvelisib] | -0.937 | 2.28 | -4 | -1.9 | 8 | 4 | -0.908 | -1.82 | 13 | 1.26 | 0.29 | 5 | 7.51 | 1.78 | -2 | 0.787 | -3.62 | 0.67 | –
– | COC(=O)N[C@@H](C)CNc1nccc(-c2cn(C(C)C)nc2-c2cc(Cl)cc(NS(C)(=O)=O)c2F)n1 [encorafenib] | 8 | -4.66 | -2.32 | 55 | -1.42 | -3 | 10 | -0.751 | -2.68 | 5 | 1 | 35 | -12 | 4.44 | -1.06 | -2.32 | 3.78 | 6 | –
– | CCc1nc(C(N)=O)c(Nc2ccc(N3CCC(N4CCN(C)CC4)CC3)c(OC)c2)nc1NC1CCOCC1 [gilteritinib] | 26 | 90 | 5.41 | 7.48 | 98 | – | 6 | -1 | 4.71 | -18 | 76 | 4 | 11 | 7 | 27 | 52 | 48 | 84 | 81
– | CCN1CCN(c2ccc(Nc3cc(N(C)C(=O)Nc4c(Cl)c(OC)cc(OC)c4Cl)ncn3)cc2)CC1 [infigratinib] | -9 | 43 | -0.0435 | -1.67 | 0.707 | -4.48 | -2.33 | 1 | 3.65 | -3 | 102 | 4.45 | 4.25 | 12 | -10 | -8 | -7 | 40 | –
1.36 | O=C(Nc1cnn2ccc(N3CCC[C@@H]3c3cc(F)ccc3F)nc12)N1CC[C@H](O)C1 [larotrectinib] | -7 | 52 | -4 | -6.65 | 2.82 | 4 | -5.32 | -2 | 2.14 | -4.61 | – | -1.34 | 0.701 | -3.43 | -6 | -0.0881 | -7.4 | 1.82 | –
– | CCN1C(=O)N(c2c(F)c(OC)cc(OC)c2F)Cc2cnc3[nH]c(CN4CCOCC4)cc3c21 [pemigatinib] | 10 | 4.32 | -3.56 | -5.3 | 4.48 | 5.32 | -7 | -1.88 | 0.757 | -7 | 100 | 14 | 27 | -1 | -2.68 | -2 | -5 | 9 | –
